Experimental data taken from patent publication US11274131B2, “IgM-mediated receptor clustering and cell modulation” (MAYO FOUNDATION FOR MEDICAL EDUCATION AND RESEARCH, priority 2007, dated 2022).

Assays:
[1] = tested on: mouse bone marrow-derived DC; experiment: Immunoblot of DAP12 and Syk phosphorylation in mouse DC; assay type: cell-based
Description: FIG. 6A to 6C is a series of histograms and pictures showing that TREM-2 is recruited into the MTAb-induced cap on mouse DC and expression of TREM-2 is important for MTAb-induced phosphorylation of the adapter DAP-12 and the protein kinase Syk. FIG. 6A: six day cultures of bone marrow-derived mouse DC were differentiated in GM-CSF and IL-4 were tagged with antibodies specific for the class II molecule IA^b (25-9-17-APC) and for TREM-2 (237916-PE) for 15 minutes prior to stimulation with the MTAb B7-DC XAb (open histograms) or with isotype control antibody sHIgM39 (filled histograms). Cells were fixed in 0.1% paraformaldehyde prior to analysis by flow cytometry. FRET between PE and APC was assessed collecting light emitted by APC following excitation of PE with a 488 nm laser. Expression of TREM-2 on the cells was assessed by staining with 237916-PE antibody alone (open histogram) or isotype control antibody (closed histogram, bottom-right panel). For FIG. 6B, mouse bone marrow-derived DC were transduced on day 2 of culture with a retrovirus expressing an […] specific for TREM-2 or a control virus containing a scrambled sequence. On day 5 of culture, the transduced cells were not treated (0′ time), activated with the isotype control antibody sHIgM39, or activated with B7-DC XAb for 5 minutes. DAP12 was immunoprecipitated from cell lysates with antibody MC457, resolved by electrophoresis, and the blotted filters were probed with the phosphotyrosine-specific antibody 4G10. FIG. 6C: the lysates used in the experiments from FIG. 6B were immunoprecipitated with the Syk-specific antibody (4D10) and analyzed by western blot for the presence of phosphotyrosine.
For transducing DC with the virus, 1 ml of supernatant containing the scrambled virus or shDNA containing dominant negative TREM-2 virus was mixed with 2 ml of RPMI. Cytokines were added to a final concentration of 10 ng/ml murine GM-CSF and 1 ng/ml murine IL-4 at day 2 of DC culture. […]
In experiments involving assessment of the phosphorylation status of various protein kinases using whole cell lysate, dendritic cells of mouse or human origin or Jurkat cells were stimulated at the indicated times with control antibody or B7-DC XAb, and were lysed on ice for 10 minutes in 1 ml buffer containing 20 mM Tris-HCl, 40 mM NaCl, 5 mM EDTA, 50 mM NaF, 30 mM Na4P2O7, 0.1% BSA, 1 mM Na3VO4, 1 mM PMSF, 5 μg/ml aprotinin, 10 μg/ml leupeptin, and 1% Triton X-100. […] Tyrosine-phosphorylated proteins were detected using the anti-phosphotyrosine specific antibody, 4G10, followed by goat anti-mouse IgG coupled to Horse Radish Peroxidase (Santa Cruz Biotechnology) and the SuperSignal detection system (Pierce Biotechnology, Rockford, Ill.). […]

human DC = experiment: Cap formation / FRET on human DC; assay type: cell-based
Description: DC of murine origin were stained with anti-Class II-FITC (MF/114.15.2), and either anti-CD80-PE (16.10A1)/CD86-PE (GL-1), or anti-CD11c-PE (N418). DC of human origin were stained with anti-Class II-FITC (LN3) and anti-CD80-PE (2D10.4)/CD86-PE (IT2.2). All incubations were carried out for 15 minutes at 37° C. The cells were subsequently stimulated with 10 μg/ml of control (sHIgM39) or B7-DC XAb, and were observed every 5 minutes using time lapse confocal imaging at 40.times magnification with a LSM510 Laser scanning confocal microscope having a 37° C. stage (Carl-Zeiss Inc, Oberkochen, Germany). Jurkat cells were pre stained with anti-human CD28-FITC (CD28.2) for 15 minutes, followed by addition of 10 μg/ml of MTAb control antibody sHIgM39, MTAb sHIgM22, or anti-K^b IgM (28-13-3), and were and analyzed in the same manner as the DC.
The flow cytometry approach for FRET was used as a way of quantifying molecular aggregation on the cell surface and was carried out as described previously (Block et al. (2001) J. Immunol. 167:821-826). Briefly, DC of murine origin were stained with anti-Class II APC (M5/114.15.2) and anti-CD80-PE (16.10A1)/CD86-PE(GL-1) for 15 minutes to visualize FRET between these molecules. […] Data collected as log10 fluorescence were analyzed using CELLQUEST™ (BD Biosciences). […]

## B7-DC XAb: human monoclonal IgM from a Waldenstrom's macroglobulinemia patient that binds and cross-links B7-DC on DC
[1]; DC transduced with scrambled shDNA
  phosphorylation of DAP12 and Syk: proceeded in the same manner
[1]; DC transduced with shDNA for TREM-2
  phosphorylation of DAP12 and Syk: absence of phosphorylation of DAP12 and Syk
[1]; TREM-2 KO DC
  phosphorylation of DAP12 and Syk: not induced
[1]; wild type DC
  phosphorylation of DAP12 and Syk: readily induced
Human DC
  reorganization of tagged class II, CD80, CD86 into a capped cluster: reorganized into a distinctly capped cluster
Human DC; within ten minutes
  FRET among class II, CD80 and CD86: strong FRET signal
